Source: US20030017186A1, “Carboxylic acid fluorides as pesticides” (priority 1999, published 2003)

Legend:
[1] = system: Broad-horned flour beetle (Gnathocerus cornutus); assay: Fumigation test in glass vessel, broad-horned flour beetles; assay type: in vivo; details: GNATCO beetles; Example 3; gas 45.8 g/m^3, 17.2° C. (1st fumigation), 45.4 g/m^3, 17.7° C. (2nd); 54% rel. air humidity
Excerpt: (§1) a3) Broad-horned flour beetle (Gnathocerus cornutus)=GNATCO
(§2) The test organisms, separated by species, were placed into a glass vessel measuring 30 cm×30 cm×60 cm, which was sealed with a glass lid so as to be airtight. The adults and the larvae of the mealworm beetle (Tenebrio molitor) and the broad-horned flour beetle (Gnathocerus cornutus) were placed into small glass vessels approximately 5 cm in diameter, which were closed with a gauze lid and in which they could freely move about. The larvae of the rice weevil had burrowed into seeds of grain. The wood pest larvae were inserted into small blocks of wood measuring 5 cm×2.5 cm×2 cm. The openings were sealed with wads of cotton wool. Only one each of the larvae of the house longhorn beetle (Hylotrupes bajulus) was inserted into a piece of wood, while 6-8 larvae of the common furniture beetle (Anobium punctatum) were inserted into each piece of wood.
(§3) The respective gas was then introduced into the fumigation vessel through a gas line from a gas tank that contained the specified amount of gas. After a defined time period, the fumigation vessel was purged with compressed air. The discharged gas was purified by an attached gas scrubber.
(§4) The beetles were observed until they died. This point was recorded for each species. The larvae of the wood pests as well as the larvae of the rice weevil (Sitophilus oryzae) had to be picked out of the wood or the grain to check their condition. If any of the animals were still alive, the wooden test blocks remaining in the vessel were fumigated again and were reexamined after the corresponding time span had elapsed. The same number of animals in the untreated control was also checked at each point.
(§5) The vitality of the animals was checked at certain time intervals. The beetles could be observed through the fumigation vessel. This was also true for the larvae of the mealworm beetle and the broad-horned flour beetle. The wooden test blocks of the wood pest larvae were opened with hammer and chisel. Tweezers were used to pull the rice weevil larvae out of the grain seeds. The exact time intervals and the number of the evaluated pests were documented in the test results.

[2] = system: wood pests (house longhorn beetle, common furniture beetle); assay: Fumigation test, wood pests; assay type: in vivo, Hylotrupes bajulus, Anobium punctatum
Excerpt: as §2, §3, §4, §5

[3] = system: House longhorn beetle (Hylotrupes bajulus) larvae; assay: Fumigation test in glass vessel, house longhorn beetle larvae in wood blocks; assay type: in vivo; details: HYLOBA larvae in wood blocks
Excerpt: (§6) b1) House longhorn beetle (Hylotrupes bajulus)=HYLOBA
as §2, §3, §4, §5

[4] = system: Common furniture beetle (Anobium punctatum) larvae; assay: Fumigation test in glass vessel, common furniture beetle larvae in wood blocks; assay type: in vivo; details: ANOBPU larvae in wood blocks
Excerpt: (§7) b2) Common furniture beetle (Anobium punctatum)=[…]
as §2, §3, §4, §5

[5] = system: Broad-horned flour beetle (Gnathocerus cornutus) larvae; assay: Fumigation test in glass vessel, broad-horned flour beetle larvae; assay type: in vivo; details: GNATCO larvae; Example 3; gas 45.8 g/m^3, 17.2° C. (1st fumigation), 45.4 g/m^3, 17.7° C. (2nd); 54% rel. air humidity
Excerpt: as §1, §2, §3, §4, §5

[6] = system: Mealworm beetle (Tenebrio molitor); assay: Fumigation test in glass vessel, mealworm beetles; assay type: in vivo; details: TENEMO beetles; Example 3; gas 45.8 g/m^3, 17.2° C. (1st fumigation), 45.4 g/m^3, 17.7° C. (2nd); 54% rel. air humidity
Excerpt: (§8) a1) Mealworm beetle (Tenebrio molitor)=TENEMO
as §2, §3, §4, §5

[7] = system: Rice weevil (Sitophilus oryzae); assay: Fumigation test in glass vessel, rice weevils; assay type: in vivo; details: SITTOR beetles; Example 3; gas 45.8 g/m^3, 17.2° C. (1st fumigation), 45.4 g/m^3, 17.7° C. (2nd); 54% rel. air humidity
Excerpt: (§9) a2) Rice weevil (Sitophilus oryzae)=SITTOR
as §2, §3, §4, §5

[8] = system: Mealworm beetle (Tenebrio molitor) larvae; assay: Fumigation test in glass vessel, mealworm beetle larvae; assay type: in vivo; details: TENEMO larvae; Example 3; gas 45.8 g/m^3, 17.2° C. (1st fumigation), 45.4 g/m^3, 17.7° C. (2nd); 54% rel. air humidity
Excerpt: as §8, §2, §3, §4, §5

[9] = system: Common furniture beetle (Anobium punctatum); assay: Fumigation test in glass vessel, common furniture beetles; assay type: in vivo; details: ANOBPU beetles
Excerpt: as §7, §2, §3, §4, §5

[10] = system: House longhorn beetle (Hylotrupes bajulus); assay: Fumigation test in glass vessel, house longhorn beetles; assay type: in vivo; details: HYLOBA beetles
Excerpt: as §6, §2, §3, §4, §5

wood and storage pests = assay: Fumigation test, wood and storage pests (overall statements); assay type: in vivo; details: Conclusion of Examples 1-5
Excerpt: as §2, §3, §4, §5

[11] = system: Rice weevil (Sitophilus oryzae) larvae; assay: Fumigation test in glass vessel, rice weevil larvae in grain seeds; assay type: in vivo; details: SITTOR larvae in grain seeds; Example 3; gas 45.8 g/m^3, 17.2° C. (1st fumigation), 45.4 g/m^3, 17.7° C. (2nd); 54% rel. air humidity
Excerpt: as §9, §2, §3, §4, §5

[12] = system: Saw-toothed grain beetle (Oryzaephilus surinamensis); assay: Fumigation test in glass vessel, saw-toothed grain beetles; assay type: in vivo; details: ORYZSA beetles; Example 3; gas 45.8 g/m^3, 17.2° C. (1st fumigation), 45.4 g/m^3, 17.7° C. (2nd); 54% rel. air humidity
Excerpt: a4) Saw-toothed grain beetle (Oryzaephilus surinamensis)=ORYZSA
as §2, §3, §4, §5

[13] = Example 1, gas 54.8 g/m^3, 16° C. (1st fumigation), 58.0 g/m^3, 13° C. (2nd), 66% rel. air humidity
[14] = Example 2, ventilator operation in vessel, gas 57.6 g/m^3, 20.6° C. (1st fumigation), 48.0 g/m^3, 21.5° C. (2nd)

`O=C(F)C(F)(F)F` [Trifluoroacetyl Fluoride, Trifluoroacetyl fluoride] was tested, and the “Number alive, 1 hr. after Start of Fumigation” value (“Number alive, 1 hr. after Start” for short) [1] was 0, the “Number dead, 1 hr. after Start of Fumigation” value (“Number dead, 1 hr. after Start” below) [1] was 15 and the “Time after which the animals became very active” value ([2]; Example 1, exposed beetles and larvae, gas 54.8 g/m^3, 16° C.) was 1 to 2 min. The “Time after which all the beetles lay on their backs, only legs and feelers moving slightly” value ([2]; Example 1, exposed beetles, gas 54.8 g/m^3, 16° C.) was “about 10 minutes”, the “Penetration of the wood to kill the larvae completely” value ([2]; Example 1, larvae in wooden test blocks, within a time span of 48 hours) was “does not penetrate the wood sufficiently” and the “Time after which larvae without wooden test blocks were dead” value ([2]; Example 1, larvae without wooden test blocks, gas 54.8 g/m^3, 16° C.) was “approximately 1 hour”. For the same compound, the “Effectiveness with respect to the larvae with ventilators” value ([2]; Example 2, air circulation through ventilators, compared with Example 1) was “no improvement in the effectiveness”, the “Number alive, 24 hrs. after Start of Fumigation” value [3, 13] was 6 and the “Number alive, 48 hrs. after Start of Fumigation” value [3, 13] was 3. The “Number dead, 24 hrs. after Start of Fumigation” value (from here on “Number dead, 24 hrs. after Start”) [3, 13] was 0, the “Number dead, 48 hrs. after Start of Fumigation” value (from here on “Number dead, 48 hrs. after Start”) [3, 13] was 3 and the “Number alive, 12 hrs. after Start of Fumigation” value [3, 14] was 7. The “Number alive, 24 hrs. after Start of Fumigation” value [3, 14] was 7, the “Number alive, 48 hrs. after Start of Fumigation” value [3, 14] was 6 and the “Number dead, 12 hrs. after Start of Fumigation” value (from here on “Number dead, 12 hrs. after Start”) [3, 14] was 0. For the same compound, the “Number dead, 24 hrs. after Start” value [3, 14] was 0, the “Number dead, 48 hrs. after Start” value [3, 14] was 1 and the “Number alive, 24 hrs. after Start of Fumigation” value [4, 13] was 10. The “Number alive, 48 hrs. after Start of Fumigation” value [4, 13] was 6, the “Number dead, 24 hrs. after Start” value [4, 13] was 0 and the “Number dead, 48 hrs. after Start” value [4, 13] was 4. For the same compound, the “Number alive, 12 hrs. after Start of Fumigation” value [4, 14] was 11, the “Number alive, 24 hrs. after Start of Fumigation” value [4, 14] was 10 and the “Number alive, 48 hrs. after Start of Fumigation” value [4, 14] was 0. For the same compound, the “Number dead, 12 hrs. after Start” value [4, 14] was 1, the “Number dead, 24 hrs. after Start” value [4, 14] was 2 and the “Number dead, 48 hrs. after Start” value [4, 14] was 12. For the same compound, the “Number alive, 1 hr. after Start” value [5] was 0, the “Number dead, 1 hr. after Start” value [5] was 15 and the “Number alive, 1 hr. after Start” value [6] was 0. The “Number dead, 1 hr. after Start” value [6] was 15, the “Number alive, 1 hr. after Start” value [7] was 0 and the “Number dead, 1 hr. after Start” value [7] was 20. The “Number alive, 1 hr. after Start” value [8] was 0, the “Number dead, 1 hr. after Start” value [8] was 15 and the “Number alive, 1 hr. after Start” value [9, 13] was 0. The “Number dead, 1 hr. after Start” value [9, 13] was 6, the “Number alive, 1 hr. after Start” value [9, 14] was 0 and the “Number dead, 1 hr. after Start” value [9, 14] was 6. The “Number alive, 1 hr. after Start” value [10, 13] was 2, the “Number alive, 3 hrs. after Start of Fumigation” value [10, 13] was 0 and the “Number dead, 1 hr. after Start” value [10, 13] was 4. For the same compound, the “Number dead, 3 hrs. after Start of Fumigation” value [10, 13] was 6, the “Number alive, 1 hr. after Start” value [10, 14] was 1 and the “Number alive, 12 hrs. after Start of Fumigation” value [10, 14] was 0. The “Number dead, 1 hr. after Start” value [10, 14] was 5, the “Number dead, 12 hrs. after Start” value [10, 14] was 6 and the “Effectiveness against exposed beetles and larvae” value (wood and storage pests) was “very effective”. The “Number alive, 1 hr. after Start” value [11] was 5, the “Number alive, 3 hrs. after Start of Fumigation” value [11] was 0 and the “Number dead, 1 hr. after Start” value [11] was 15. For the same compound, the “Number dead, 3 hrs. after Start of Fumigation” value [11] was 20, the “Number alive, 1 hr. after Start” value [12] was 0 and the “Number dead, 1 hr. after Start” value [12] was 15.
